Measured values from US4260630A, “Skin diseases” (priority 1977, dated 1981).
Entries after “also recorded” stand apart in the source; their conditions may differ.

What was measured:
calf thymus DNA = assay: Photobinding to native calf thymus DNA in vitro; assay type: binding; conditions: for μg 3-CPs/μg DNA / cpm/μg DNA: 6 × 10^-5 M
Procedure: These determinations were done in vitro and in vivo. […] The thickness of the irradiated sample was 1 mm. After irradiation, the solution was diluted by a factor of 2, and NaCl was added to a final concentration of 1 M. The DNA was precipitated with 2 volumes of cold pure ethanol. The samples were left overnight in the cold at -20° C. The precipitate was then washed by centrifugation three times with 3 ml of 70% ethanol and redissolved in 3 ml of water. The DNA recovery was checked by determination of the optical density of the solution at 260 nm.

Saccharomyces cerevisiae = assay: Repair of photoinduced lesions in yeast (repair mutants, agar holding); assay type: cell-based
Source text: Biophys. Acta, 395, 393-404.
Consequently, it appears that the excision repair pathway in wild type and rad9-4 cells is essential in AHR for both compounds.

yeast RNA = assay: Photobinding to yeast RNA in vivo (radiolabelled drug plus 365 nm light); assay type: binding, Saccharomyces cerevisiae; conditions: for cpm for 10^8 cells: RNA; for Molecules 3-CPs/μg DNA / μg 3-CPs/μg DNA: binding to RNA
Procedure: The radioactivity of an aliquot (0.1 ml) of this solution was measured in 5 ml of scintillation mixture (Nuclear Entreprise, Ltd., Edinburgh, Scotland, NE 250).
For the in vivo determinations stationary phase cells of the haploid wild type strain N 123 were prepared as previously described.
2 ml cell suspensions were exposed to several doses of 365 nm light. In parallel, non irradiated samples were incubated for the same periods. Immediately after incubation and/or irradiation, the samples were centrifuged and the pellet was washed 3 times with 5 ml of saline (0.9% NaCl). The washed cell pellet was resuspended in 1 ml of saline and 1 ml of 2 N NaOH was added in order to hydrolyze the RNA. The suspension was incubated overnight in the dark at room temperature, then cooled down on ice, and 2 ml of 50% TCA were added slowly. The samples were left 20 minutes on ice and the precipitated DNA was filtered on a glass fiber filter disc (Whatman GF/A, 2.1 cm diameter). In some cases the filtrate containing the acid-soluble material was kept aside, and the radioactivity of an aliquot added to 5 ml of NE250 scintillation mixture measured. The precipitate was washed 3 times with 5 ml of 5% cold TCA and 5 ml of 70% ethanol. The filters were then dried and the radioactivity measured in plastic counting vials containing 5 ml of scintillation mixture (NE 250) in a Tricarb Packard scintillation spectrophotometer.

yeast DNA = assay: Melting and reassociation (cross-link formation) of yeast DNA treated in vitro plus 365 nm light; assay type: biochemical
Procedure: Measurement of the melting and reassociation characteristics of yeast DNA:
Biophys. […] The fractions containing the nuclear DNA were pooled and dialysed against a 0.1 M, pH 7 phosphate buffer. […] Unirradiated samples of DNA with or without the drugs were taken as references.
The cross-links formation of the two furocoumarins with native yeast DNA was tested by measuring the denaturation and renaturation pattern.

[1] = 15 min, 18.9 × 10^4 ergs. mm^-2 365 nm
[2] = 30 min, 37.8 × 10^4 ergs. mm^-2 365 nm
[3] = 45 min, 56.7 × 10^4 ergs. mm^-2 365 nm
[4] = 60 min, 75.6 × 10^4 ergs. mm^-2 365 nm
[5] = 5 min, 6.3 × 10^4 ergs.mm^-2 365 nm
[6] = 10 min, 12.6 × 10^4 ergs.mm^-2 365 nm
[7] = 15 min, 18.9 × 10^4 ergs.mm^-2 365 nm
[8] = 20 min, 25.2 × 10^4 ergs.mm^-2 365 nm
[9] = 30 min, 37.8 × 10^4 ergs.mm^-2 365 nm
[10] = 40 min, 50.4 × 10^4 ergs.mm^-2 365 nm
[11] = 60 min, 75.6 × 10^4 ergs.mm^-2 365 nm

With `CCOC(=O)c1cc2cc3ccoc3cc2oc1=O` [Example 3-CPs, 3-carboethoxypsoralen] the “μg 3-CPs/μg DNA” value (calf thymus DNA; 0-60 min incubation (dark)) was 0.009×10^-3 μg 3-CPs/μg DNA, the “cpm/μg DNA” value (calf thymus DNA; [1]) was 3.29 cpm/μg DNA and the “μg 3-CPs/μg DNA” value (calf thymus DNA; [1]) was 0.14×10^-3 μg 3-CPs/μg DNA. For the same molecule, the “cpm/μg DNA” value (calf thymus DNA; [2]) was 4.25 cpm/μg DNA, the “μg 3-CPs/μg DNA” value (calf thymus DNA; [2]) was 0.18×10^-3 μg 3-CPs/μg DNA and the “cpm/μg DNA” value (calf thymus DNA; [3]) was 4.30 cpm/μg DNA. The “μg 3-CPs/μg DNA” value (calf thymus DNA; [3]) was 0.18×10^-3 μg 3-CPs/μg DNA, the “cpm/μg DNA” value (calf thymus DNA; [4]) was 3.10 cpm/μg DNA and the “μg 3-CPs/μg DNA” value (calf thymus DNA; [4]) was 0.13×10^-3 μg 3-CPs/μg DNA. For the same molecule, the “dose of 365 nm light up to which binding increases rapidly” value (calf thymus DNA; in vitro) was “up to 3780 J/m^2”, the “difference in photoreactivity with DNA in vitro, 3-CPs vs 8-MOP” value (calf thymus DNA; in vitro (table 3)) was 4.8 factor and the “photoreactivity with native DNA, times lower than 8-MOP” value (calf thymus DNA; initial part of the photoreaction) was “about 5 times”. For the same molecule, the “dark repair by strain defective in excision” value (Saccharomyces cerevisiae; agar holding) was “unable to perform a dark repair”, the “repair by strain defective in recombination” value (Saccharomyces cerevisiae; agar holding) was “reduced capacity to repair” and the “interaction between rad2 and rad9 repair pathways” value (Saccharomyces cerevisiae; plus 365 nm light) was “synergistic interaction”. For the same molecule, the “kinetics of agar holding recovery (AHR)” value (Saccharomyces cerevisiae; wild-type cells) was “same kinetics of AHR”, the “photoaffinity for RNA” value (yeast RNA) was “relatively low photoaffinity for RNA” and the “cpm for 10^8 cells” value (yeast RNA; 5-60 min, no 365 nm light) was 1285 cpm for 10^8 cells. For the same molecule, the “cpm for 10^8 cells” value (yeast RNA; [5]) was 7130 cpm for 10^8 cells, the “cpm for 10^8 cells” value (yeast RNA; [6]) was 11040 cpm for 10^8 cells and the “cpm for 10^8 cells” value (yeast RNA; [7]) was 14170 cpm for 10^8 cells. The “cpm for 10^8 cells” value (yeast RNA; [8]) was 18780 cpm for 10^8 cells, the “cpm for 10^8 cells” value (yeast RNA; [9]) was 25380 cpm for 10^8 cells and the “cpm for 10^8 cells” value (yeast RNA; [10]) was 29240 cpm for 10^8 cells. For the same molecule, the “cpm for 10^8 cells” value (yeast RNA; [11]) was 31730 cpm for 10^8 cells, the “Molecules 3-CPs/μg DNA” value (yeast RNA; 5-60 min, no 365 nm light) was 0.0023 Molecules 3-CPs/μg DNA × 10^14 and the “μg 3-CPs/μg DNA” value (yeast RNA; 5-60 min, no 365 nm light) was 0.01 μg 3-CPs/μg DNA × 10^-2. The “Molecules 3-CPs/μg DNA” value (yeast RNA; [5]) was 0.0130 Molecules 3-CPs/μg DNA × 10^14, the “μg 3-CPs/μg DNA” value (yeast RNA; [5]) was 0.056 μg 3-CPs/μg DNA × 10^-2 and the “Molecules 3-CPs/μg DNA” value (yeast RNA; [6]) was 0.020 Molecules 3-CPs/μg DNA × 10^14. The “μg 3-CPs/μg DNA” value (yeast RNA; [6]) was 0.086 μg 3-CPs/μg DNA × 10^-2, the “Molecules 3-CPs/μg DNA” value (yeast RNA; [7]) was 0.026 Molecules 3-CPs/μg DNA × 10^14 and the “μg 3-CPs/μg DNA” value (yeast RNA; [7]) was 0.11 μg 3-CPs/μg DNA × 10^-2. The “Molecules 3-CPs/μg DNA” value (yeast RNA; [8]) was 0.034 Molecules 3-CPs/μg DNA × 10^14, the “μg 3-CPs/μg DNA” value (yeast RNA; [8]) was 0.15 μg 3-CPs/μg DNA × 10^-2 and the “Molecules 3-CPs/μg DNA” value (yeast RNA; [9]) was 0.046 Molecules 3-CPs/μg DNA × 10^14. For the same molecule, the “μg 3-CPs/μg DNA” value (yeast RNA; [9]) was 0.20 μg 3-CPs/μg DNA × 10^-2, the “Molecules 3-CPs/μg DNA” value (yeast RNA; [10]) was 0.053 Molecules 3-CPs/μg DNA × 10^14 and the “μg 3-CPs/μg DNA” value (yeast RNA; [10]) was 0.23 μg 3-CPs/μg DNA × 10^-2. The “Molecules 3-CPs/μg DNA” value (yeast RNA; [11]) was 0.058 Molecules 3-CPs/μg DNA × 10^14, the “μg 3-CPs/μg DNA” value (yeast RNA; [11]) was 0.25 μg 3-CPs/μg DNA × 10^-2 and the “dark binding with RNA relative to that at lowest dose of irradiation” value (yeast RNA; dark, 50 minutes) was 20%. For the same molecule, the “365 nm light dose up to which binding with RNA increases linearly, then levels off” value (yeast RNA; in vivo) was “up to 25.2×10^3 J/m^2”, the “difference in photoreactivity with RNA, 3-CPs vs 8-MOP” value (yeast RNA; in vivo) was 3.4 factor and the “reassociation of DNA after heat denaturation” value (yeast DNA) was “such a reassociation was not found”. For the same molecule, the “cross-links in DNA” value (yeast DNA; dose range used) was “does not induce cross-links in DNA; also recorded: absence of cross-link formation”.
